Where two headings read alike, the source gives them in different places.
Tests used:
[1] = tested on: human liver cancer cells Bel-7402 transplanted tumor; type: in vivo; conditions: for Quantity of Animals Whose Tumors Vanished / Inhibition Rate (%) / Tumor Volume (mm^3): PO; for Quantity of Animals Whose Tumors Vanished: 5 animals per group; for Inhibition Rate (%) / Tumor Volume (mm^3): Bel-7402 on nude mice; for tumors vanished (animals/group): at the 11th day; for tumors vanished (animals/group) / toxicity / survivability of mice: intragastrically once a day for 11 days; for toxicity / survivability of mice: nude mice; for recrudescence of tumors: at the end of the experiment (17th day)
Excerpt: Name and lot number: YHHU-744, a white powder, lot No.: No. c001471-106; YHHU-755, a white powder, lot No.: No. c001471-102; YHHU-756, a white powder, lot No.: No. c00147-106; YHHU-759, a white powder, lot No.: No. c001471-102; YHHU-776, a white powder, lot No.: No. c001471-107. Sorafenib was used as a positive control.
Formulation: YHHU-744, YHHU-755, YHHU-756, YHHU-759, YHHU-776 and the positive control were each diluted with 0.1% Tween-80 and distilled water to a desired concentration.
BALB/cA nude mice, 6-7 weeks old, ♀, were purchased from Shanghai SLAC Laboratory Animal Co. LTD. Certificate No.: SCXK (Shanghai) 2007-0005. Habitat: SPF level.
Human liver cancer cells Bel-7402 were inoculated on nude mice subcutaneously. After the tumor grew up to 300-450 mm^3, animals were grouped randomly (d0). The tumor volume was measured 2-3 times each week and the weights of mice were recorded. The tumor volume was calculated according to as the following equation. V=½×a×b^2 wherein, a and b are length and width, respectively. […]

[2] = tested on: human hepatoma cell line Bel-7402; test: SRB proliferation assay, Bel-7402; type: cell-based; conditions: BEL-7402 cultivated in vitro, given as bounds, read-out: The Inhibition Activities for Human Liver Cancer Cells BEL-7402 (IC50)
Method: Protocol: the antineoplasmic activities in vitro of the compounds were assayed by a Sulforhodamine B (SRB) protocol. Tumor cells were cultivated at 37 under 5% CO2 in a RPMI 1640 medium or a DMEM medium (Gibco) containing 10% fetal bovine serum. Tumor cells were inoculated on a 96-well plate with a concentration of 0.4-1.0×10^4 cells per well according to the cell types. 24 hours later, the target compounds diluted 10 times were added, each compound having at least 5 concentrations. After treated by the compounds for 72 hours, the culture media were discarded, and the cells were fixed by 10% cold trichloroacetic acid, and then stained by Sulforhodamine B (SRB) solution. The uncombined SRB was washed off, and the SRB combined with protein was dissolved with Tris. OD values were recorded at 515 nm on an ELISA Reader, and the cell growth inhibition rate was calculated according to following equation: Inhibition rate=(ODcontrol−ODexperimental)/ODcontrol×100%
IC50 (50% inhibitory concentration) was calculated by using Logit method based on the inhibition rates at various concentration, and the results are shown in tables 1 and 2.
The following cell lines were used: human hepatocarcinoma cell line […]; ovarian cancer cell line SK-OV-3; human breast cancer cell line MDA-MB-231; human renal carcinoma cell line A498; colon adenocarcinoma cell line HT-29; non-small cell lung cancer cell line NCI-H460; lung adenocarcinoma cell line A549; human colon cancer cell line SW-620; human hepatoma cell line Bel-7402; human breast carcinoma cell line SK-BR-3; and human umbilical vein endothelial cells (HUVEC).

Row | SMILES | IC50 ([2]; Homo sapiens, Bel-7402, 72 h) | other results
1 | CNC(=O)c1cc(Oc2ccc(NC(=O)Nc3ccc(Cl)c(C(F)(F)F)c3)cc2)ccn1 [Sorafenib, reference compound] | – | Quantity of Animals Whose Tumors Vanished ([1]; 60 mg/kg, QDx16): 0; Inhibition Rate (%) ([1]; 60 mg/kg, QDx16): 50%; Tumor Volume (mm^3) ([1]; 60 mg/kg, QDx16): 279.8 mm^3
2 | CN(CCO)c1ccc(-c2ccc(=O)[nH]n2)cc1C(F)(F)F [YHHU-681] | < 1000 nM | –
3 | C[C@@H]1CN(c2ccc(-c3ccc(=O)[nH]n3)cc2C(F)(F)F)CCN1 [YHHU-682] | < 10 nM | –
4 | CN(C)[C@@H]1CCN(c2ccc(-c3ccc(=O)[nH]n3)cc2C(F)(F)F)C1 [YHHU-683] | < 100 nM | –
5 | O=c1ccc(-c2ccc(N3CCN(CCO)CC3)c(C(F)(F)F)c2)n[nH]1 [YHHU-685] | < 10 nM | –
6 | CC(C)N(c1ccc(-c2ccc(=O)[nH]n2)cc1C(F)(F)F)C(C)C [YHHU-688] | < 10 nM | –
7 | O=c1ccc(-c2ccc(NC3CCCC3)c(C(F)(F)F)c2)n[nH]1 [YHHU-689] | < 100 nM | –
8 | CCOC(=O)C1CCN(c2ccc(-c3ccc(=O)[nH]n3)cc2C(F)(F)F)CC1 [YHHU-693] | < 100 nM | –
9 | CSc1ccc(-c2ccc(=O)[nH]n2)cc1C(F)(F)F [YHHU-694] | < 100 nM | –
10 | O=c1ccc(-c2ccc(NCC3CCCCC3)c(C(F)(F)F)c2)n[nH]1 [YHHU-696] | < 100 nM | –
11 | O=c1ccc(-c2ccc(SCCO)c(C(F)(F)F)c2)n[nH]1 [YHHU-700] | < 10000 nM | –
12 | CN(C)Cc1ccc(-c2ccc(=O)[nH]n2)cc1C(F)(F)F [YHHU-701] | < 10 nM | –
13 | O=c1ccc(-c2ccc(C#Cc3ccc(C(F)(F)F)cc3)c(C(F)(F)F)c2)n[nH]1 [YHHU-702] | < 10000 nM | –
14 | O=c1ccc(-c2ccc(-c3ccccc3)c(C(F)(F)F)c2)n[nH]1 [YHHU-703] | < 10000 nM | –
15 | O=c1ccc(-c2ccc(-n3ccnc3)c(C(F)(F)F)c2)n[nH]1 [YHHU-706] | < 10000 nM | –
16 | O=c1ccc(-c2ccc(OC(F)(F)F)c(C(F)(F)F)c2)n[nH]1 [YHHU-707] | < 10000 nM | –
17 | O=c1ccc(-c2ccc(-c3cccnc3)c(C(F)(F)F)c2)n[nH]1 [YHHU-709] | < 10000 nM | –
18 | O=c1ccc(-c2ccc(C(F)(F)F)c(C(F)(F)F)c2)n[nH]1 [YHHU-710] | < 10000 nM | –
19 | O=c1ccc(-c2ccc(NC3CCCCC3)c(C(F)(F)F)c2)n[nH]1 [YHHU-715] | – | IC50 ([2]; 72 hours): < 10000 nM
20 | CCNc1ccc(-c2ccc(=O)[nH]n2)cc1C(F)(F)F [YHHU-744] | < 10 nM | Quantity of Animals Whose Tumors Vanished ([1]; 100 mg/kg, QDx11): 4; Inhibition Rate (%) ([1]; 100 mg/kg, QDx11): 98%; Tumor Volume (mm^3) ([1]; 100 mg/kg, QDx11): 343.7 mm^3; tumors vanished (animals/group) [1]: 4/5; toxicity / survivability of mice [1]: no significant toxicity was observed
21 | CC1CN1c1ccc(-c2ccc(=O)[nH]n2)cc1C(F)(F)F (centres unmarked) [YHHU-748] | – | IC50 ([2]; Homo sapiens, 72 hours): < 10 nM
22 | O=c1ccc(-c2ccc(N3CCCCC3)c(C(F)(F)F)c2)n[nH]1 [YHHU-755] | < 10 nM | Quantity of Animals Whose Tumors Vanished ([1]; 100 mg/kg, QDx11): 5; Inhibition Rate (%) ([1]; 100 mg/kg, QDx11): 100%; Tumor Volume (mm^3) ([1]; 100 mg/kg, QDx11): 350.4 mm^3; tumors vanished (animals/group) [1]: 5/5; recrudescence of tumors [1]: no recrudescence was observed; toxicity / survivability of mice [1]: no significant toxicity was observed
23 | O=c1ccc(-c2ccc(NC3CCCCC3)c(C(F)(F)F)c2)n[nH]1 [YHHU-757] | – | IC50 ([2]; 72 hours): < 10 nM
24 | COc1ccc(-c2ccc(=O)[nH]n2)cc1C(F)(F)F [YHHU-762] | – | IC50 ([2]; 72 hours): < 10 nM
25 | O=c1ccc(-c2ccc(OCCN3CC3)c(C(F)(F)F)c2)n[nH]1 [YHHU-771] | – | IC50 ([2]; Homo sapiens, 72 hours): < 100 nM
26 | O=c1ccc(-c2ccc(N3CCC(O)CC3)c(C(F)(F)F)c2)n[nH]1 [YHHU-776] | < 10 nM | Quantity of Animals Whose Tumors Vanished ([1]; 100 mg/kg, QDx11): 5; Inhibition Rate (%) ([1]; 100 mg/kg, QDx11): 100%; Tumor Volume (mm^3) ([1]; 100 mg/kg, QDx11): 338.2 mm^3; tumors vanished (animals/group) [1]: 5/5; recrudescence of tumors [1]: no recrudescence was observed; toxicity / survivability of mice [1]: no significant toxicity was observed

More lines, main results first:

Row | IC50 ([2]; Homo sapiens, Bel-7402, 72 h) | SMILES | other results
27 | < 1000 nM | O=c1ccc(-c2ccc(NC3CCC(O)CC3)c(C(F)(F)F)c2)n[nH]1 (centres unmarked) [YHHU-711] | –
28 | < 1000 nM | O=c1ccc(-c2ccc(NC3CCCC(O)C3)c(C(F)(F)F)c2)n[nH]1 (centres unmarked) [YHHU-712] | –
29 | < 1000 nM | O=c1ccc(-c2ccc(OCC3CC3)c(C(F)(F)F)c2)n[nH]1 [YHHU-713] | –
30 | < 10000 nM | O=c1ccc(-c2ccc(OCc3ccccc3)c(C(F)(F)F)c2)n[nH]1 [YHHU-714] | –
31 | < 10000 nM | O=c1ccc(-c2ccc(NC3CCCCC3O)c(C(F)(F)F)c2)n[nH]1 (centres unmarked) [YHHU-716] | –
32 | > 1000 nM | Cc1ccc(Sc2ccc(-c3ccc(=O)[nH]n3)cc2C(F)(F)F)cc1 [YHHU-717] | –
33 | < 10000 nM | O=c1ccc(-c2ccc(N3CC4CCCC4C3)c(C(F)(F)F)c2)n[nH]1 (centres unmarked) [YHHU-718] | –
34 | > 1000 nM | CN(C)CCNc1ccc(-c2ccc(=O)[nH]n2)cc1C(F)(F)F [YHHU-745] | –
35 | > 1000 nM | CN(C)CCN(C)c1ccc(-c2ccc(=O)[nH]n2)cc1C(F)(F)F [YHHU-746] | –
36 | < 10 nM | O=c1ccc(-c2ccc(N3CCCCCC3)c(C(F)(F)F)c2)n[nH]1 [YHHU-747] | –
37 | < 10 nM | CC(O)C1CCN(c2ccc(-c3ccc(=O)[nH]n3)cc2C(F)(F)F)CC1 (centres unmarked) [YHHU-751] | –
38 | < 100 nM | O=c1ccc(-c2ccc(N3CC(O)C3)c(C(F)(F)F)c2)n[nH]1 [YHHU-752] | –
39 | < 100 nM | O=c1ccc(-c2ccc(N3CCCC(O)C3)c(C(F)(F)F)c2)n[nH]1 (centres unmarked) [YHHU-753] | –
40 | < 10 nM | CNc1ccc(-c2ccc(=O)[nH]n2)cc1C(F)(F)F [YHHU-758] | –
41 | > 100 nM | O=c1ccc(-c2ccc(NCCO)c(C(F)(F)F)c2)n[nH]1 [YHHU-760] | –
42 | < 10 nM | CC(C)Nc1ccc(-c2ccc(=O)[nH]n2)cc1C(F)(F)F [YHHU-761] | –
43 | < 100 nM | O=c1ccc(-c2ccc(N3CCCCC3CO)c(C(F)(F)F)c2)n[nH]1 (centres unmarked) [YHHU-763] | –
44 | < 100 nM | O=C(O)C1CCCN(c2ccc(-c3ccc(=O)[nH]n3)cc2C(F)(F)F)C1 (centres unmarked) [YHHU-765] | –
45 | < 100 nM | O=c1ccc(-c2ccc(N3CCC(O)C3)c(C(F)(F)F)c2)n[nH]1 (centres unmarked) [YHHU-766] | –
46 | < 100 nM | CCOC(=O)C1CCCN1c1ccc(-c2ccc(=O)[nH]n2)cc1C(F)(F)F (centres unmarked) [YHHU-768] | –
47 | < 1000 nM | CCOC(=O)CCNc1ccc(-c2ccc(=O)[nH]n2)cc1C(F)(F)F [YHHU-769] | –
48 | < 100 nM | O=c1ccc(-c2ccc(OCCN3CCCC3)c(C(F)(F)F)c2)n[nH]1 [YHHU-770] | –
49 | < 100 nM | CC(C)CCOc1ccc(-c2ccc(=O)[nH]n2)cc1C(F)(F)F [YHHU-772] | –
50 | < 100 nM | CCC(C)(C)Oc1ccc(-c2ccc(=O)[nH]n2)cc1C(F)(F)F [YHHU-773] | –
51 | < 100 nM | COC(CNc1ccc(-c2ccc(=O)[nH]n2)cc1C(F)(F)F)OC [YHHU-774] | –
52 | < 100 nM | O=c1ccc(-c2ccc(OCCN3CCOCC3)c(C(F)(F)F)c2)n[nH]1 [YHHU-775] | –
